Results taken from ChEMBL document CHEMBL1123630, “Stereospecificity in allergic contact dermatitis to simple substituted methylene lactone derivatives” (1987).

Legend:
Assay type in all cases: functional
[1] = organism: Cavia porcellus; experiment: Evaluated for the open epicutaneous test and no. of animals showing no reaction (0) by (-)4,5-Dimethyl-3-methylene-dihydro-furan-2-one sensitization in guinea pigs
[2] = organism: Cavia porcellus; experiment: Mean reaction by (+)4,5-Dimethyl-3-methylene-dihydro-furan-2-one sensitization in guinea pigs was determined by open epicutaneous test fo the compound
[3] = organism: Cavia porcellus; experiment: Mean reaction by (-)4,5-Dimethyl-3-methylene-dihydro-furan-2-one sensitization in guinea pigs was determined by open epicutaneous test fo the compound
[4] = organism: Cavia porcellus; experiment: Number of positive animals showing sensitization to (+)4,5-Dimethyl-3-methylene-dihydro-furan-2-one in 8 guinea pigs was determined by open epicutaneous test for the compound
[5] = organism: Cavia porcellus; experiment: Evaluated for the open epicutaneous test and no. of animals showing erythema covering the whole (1) by (-)4,5-Dimethyl-3-methylene-dihydro-furan-2-one sensitization in guinea pigs
[6] = organism: Cavia porcellus; experiment: Evaluated for the open epicutaneous test and no. of animals showing erythema and swelling(2) by (+)4,5-Dimethyl-3-methylene-dihydro-furan-2-one sensitization in guinea pigs
[7] = organism: Cavia porcellus; experiment: Evaluated for the open epicutaneous test and no. of animals showing no reaction (0) by (+)4,5-Dimethyl-3-methylene-dihydro-furan-2-one sensitization in guinea pigs
[8] = organism: Cavia porcellus; experiment: Evaluated for the open epicutaneous test and no. of animals showing erythema covering part (0.5) by (-)4,5-Dimethyl-3-methylene-dihydro-furan-2-one sensitization in guinea pigs
[9] = organism: Cavia porcellus; experiment: Evaluated for the open epicutaneous test and no. of animals showing erythema covering the whole (1) by (+)4,5-Dimethyl-3-methylene-dihydro-furan-2-one sensitization in guinea pigs
[10] = organism: Cavia porcellus; experiment: Number of positive animals showing sensitization to (-)4,5-Dimethyl-3-methylene-dihydro-furan-2-one in 8 guinea pigs was determined by open epicutaneous test for the compound
[11] = organism: Cavia porcellus; experiment: Evaluated for the open epicutaneous test and no. of animals showing erythema covering part (0.5) by (+)4,5-Dimethyl-3-methylene-dihydro-furan-2-one sensitization in guinea pigs
[12] = organism: Cavia porcellus; experiment: Evaluated for the open epicutaneous test and no. of animals showing erythema and swelling(2) by (-)4,5-Dimethyl-3-methylene-dihydro-furan-2-one sensitization in guinea pigs
[13] = organism: Cavia porcellus; experiment: Evaluated for the open epicutaneous test and no. of animals showing erythema and swelling(2) by (+)4-Methyl-3-methylene-dihydro-furan-2-one sensitization in guinea pigs
[14] = organism: Cavia porcellus; experiment: Mean reaction by (-)4-Methyl-3-methylene-dihydro-furan-2-one sensitization in guinea pigs was determined by open epicutaneous test fo the compound
[15] = organism: Cavia porcellus; experiment: Evaluated for the open epicutaneous test and no. of animals showing erythema and swelling(2) by (-)4-Methyl-3-methylene-dihydro-furan-2-one sensitization in guinea pigs
[16] = organism: Cavia porcellus; experiment: Evaluated for the open epicutaneous test and no. of animals showing erythema covering part (0.5) by (+)4-Methyl-3-methylene-dihydro-furan-2-one sensitization in guinea pigs
[17] = organism: Cavia porcellus; experiment: Evaluated for the open epicutaneous test and no. of animals showing no reaction (0) by (-)4-Methyl-3-methylene-dihydro-furan-2-one sensitization in guinea pigs
[18] = organism: Cavia porcellus; experiment: Evaluated for the open epicutaneous test and no. of animals showing erythema covering the whole (1) by (-)4-Methyl-3-methylene-dihydro-furan-2-one sensitization in guinea pigs
[19] = organism: Cavia porcellus; experiment: Number of positive animals showing sensitization to (-)4-Methyl-3-methylene-dihydro-furan-2-one in 7 guinea pigs was determined by open epicutaneous test for the compound
[20] = organism: Cavia porcellus; experiment: Number of positive animals showing sensitization to (+)4-Methyl-3-methylene-dihydro-furan-2-one in 3 guinea pigs was determined by open epicutaneous test for the compound
[21] = organism: Cavia porcellus; experiment: Evaluated for the open epicutaneous test and no. of animals showing no reaction (0) by (+)4-Methyl-3-methylene-dihydro-furan-2-one sensitization in guinea pigs
[22] = organism: Cavia porcellus; experiment: Mean reaction by (+)4-Methyl-3-methylene-dihydro-furan-2-one sensitization in guinea pigs was determined by open epicutaneous test fo the compound
[23] = organism: Cavia porcellus; experiment: Evaluated for the open epicutaneous test and no. of animals showing erythema covering part (0.5) by (-)4-Methyl-3-methylene-dihydro-furan-2-one sensitization in guinea pigs
[24] = organism: Cavia porcellus; experiment: Evaluated for the open epicutaneous test and no. of animals showing erythema covering the whole (1) by (+)4-Methyl-3-methylene-dihydro-furan-2-one sensitization in guinea pigs
[25] = organism: Cavia porcellus; experiment: Number of positive animals showing sensitization to (+)4-Methyl-3-methylene-dihydro-furan-2-one in 6 guinea pigs was determined by open epicutaneous test for the compound
[26] = organism: Cavia porcellus; experiment: Number of positive animals showing sensitization to (-)4-Methyl-3-methylene-dihydro-furan-2-one in 6 guinea pigs was determined by open epicutaneous test for the compound

Structure (SMILES) | No. of animals [1] | Mean reaction [2] | Mean reaction [3] | No. of positive animals [4] | No. of animals [5] | No. of animals [6] | No. of animals [7] | No. of animals [8] | No. of animals [9] | No. of positive animals [10] | No. of animals [11] | No. of animals [12] | No. of animals [13] | Mean reaction [14] | No. of animals [15] | No. of animals [16] | No. of animals [18] | No. of animals [21] | No. of animals [23] | No. of animals [24] | also measured
C=C1C(=O)O[C@@H](C)[C@@H]1C | 0 | 0 | 0.8 | 0 | 5 | 0 | 8 | 3 | 0 | 8 | 0 | 0 |  |  |  |  |  |  |  |  | 
C=C1C(=O)OC[C@@H]1C |  |  |  |  |  |  |  |  |  |  |  |  | 0 | 1.7 | 5 | 3 | 2 | 4 | 0 | 0 | No. of animals [17]: 0; No. of positive animals [19]: 7; No. of positive animals [20]: 3; Mean reaction [22]: 0.2
C=C1C(=O)O[C@H](C)[C@H]1C | 3 | 0.4 | 0.5 | 6 | 3 | 0 | 2 | 2 | 1 | 5 | 5 | 0 |  |  |  |  |  |  |  |  | 
C=C1C(=O)OC[C@H]1C | 6 | 0.9 |  |  |  |  |  |  |  |  |  |  | 0 | 0 | 0 | 1 | 0 | 0 | 0 | 5 | No. of positive animals [25]: 6; No. of positive animals [26]: 0
